Calls of active or inactive are those of the source. How the calls were made is not given here.
Tested on: CCRIS mutagenicity, Ames/micronucleus/aberration tests
Test: CCRIS mutagenicity studies
[1] = Test System: AMES SALMONELLA TYPHIMURIUM, Strain/Indicator: TA1537, Metabolic Activation: NONE, Method: STANDARD PLATE

COC(=O)N/N=C/c1c[n+]([O-])c2ccccc2[n+]1[O-]
mutagenic call (Test System: AMES SALMONELLA TYPHIMURIUM, Strain/Indicator: TA98, Metabolic Activation: NONE, Method: PREINCUBATION): active; positive | mutagenic call (Test System: AMES SALMONELLA TYPHIMURIUM, Strain/Indicator: TA98, Metabolic Activation: S-9, Method: PREINCUBATION): active; positive | mutagenic call (Test System: E. COLI, Strain/Indicator: WP2 UVRA (PKM101), Metabolic Activation: NONE): active; positive | mutagenic call (Test System: E. COLI, Strain/Indicator: WP2 UVRA (PKM101), Metabolic Activation: S-9): active; positive

CN(C)CCNC(=O)c1ccc2ccc3cccnc3c2n1
mutagenic call [1]: active; positive

N#Cc1cc([N+](=O)[O-])ccc1N=Nc1ccc(N(CCO)CCO)cc1
mutagenic call (Test System: AMES SALMONELLA TYPHIMURIUM, Strain/Indicator: TA98, Metabolic Activation: NONE, Method: STANDARD PLATE): active; positive | mutagenic call (Test System: AMES SALMONELLA TYPHIMURIUM, Strain/Indicator: TA98, Metabolic Activation: RAT, LIVER, S-9, AROCLOR 1254, Method: STANDARD PLATE): active; positive | mutagenic call (Test System: AMES SALMONELLA TYPHIMURIUM, Strain/Indicator: TA100, Metabolic Activation: NONE, Method: STANDARD PLATE): active; positive | mutagenic call (Test System: AMES SALMONELLA TYPHIMURIUM, Strain/Indicator: TA100, Metabolic Activation: RAT, LIVER, S-9, AROCLOR 1254, Method: STANDARD PLATE): active; positive | mutagenic call (Test System: AMES SALMONELLA TYPHIMURIUM, Strain/Indicator: TA1535, Metabolic Activation: NONE, Method: STANDARD PLATE): inactive; negative | mutagenic call (Test System: AMES SALMONELLA TYPHIMURIUM, Strain/Indicator: TA1535, Metabolic Activation: RAT, LIVER, S-9, AROCLOR 1254, Method: STANDARD PLATE): inactive; negative | mutagenic call [1]: active; positive | mutagenic call (Test System: AMES SALMONELLA TYPHIMURIUM, Strain/Indicator: TA1537, Metabolic Activation: RAT, LIVER, S-9, AROCLOR 1254, Method: STANDARD PLATE): active; positive | mutagenic call (Test System: AMES SALMONELLA TYPHIMURIUM, Strain/Indicator: TA1538, Metabolic Activation: NONE, Method: STANDARD PLATE): active; positive | mutagenic call (Test System: AMES SALMONELLA TYPHIMURIUM, Strain/Indicator: TA1538, Metabolic Activation: RAT, LIVER, S-9, AROCLOR 1254, Method: STANDARD PLATE): active; positive | mutagenic call (Test System: CHINESE HAMSTER V-79, Strain/Indicator: V-79 (HGPRT)/6-THIOGUANINE, Metabolic Activation: RAT, LIVER, S-9, AROCLOR 1254): inactive; negative | mutagenic call (Test System: CHINESE HAMSTER V-79, Strain/Indicator: V-79/6-THIOGUANINE, Metabolic Activation: NONE): inactive; negative | mutagenic call (Test System: UDS RAT HEPATOCYTES, Strain/Indicator: THY INCORP, Metabolic Activation: NONE, Method: AUTORADIOGRAPHY): inactive; negative
